Consider four molecules from PMC12444550, “Design, Synthesis, and Trypanosomicidal Evaluation of Eugenol-Based Azole Hybrids: Discovery of an In Vitro Active and Selective Compound” (ACS Omega, 2025).

The test system of series [1] is T. cruzi Y strain trypomastigote forms. Put plainly: Anti-T. cruzi activity against trypomastigote forms. Type of series: cell-based. The following applies: Trypanosoma cruzi, 24 h, 24 h of incubation; Y strain; read-out: Y strain T. cruzi EC50 Trypomastigote. As to the method:
The T. cruzi Y strain was selected for this study due to its known partial sensitivity to benznidazole chemotherapy.
Trypomastigote forms of T. cruzi (2.5 × 10^5 parasites/well) were incubated in 96-well plates with serial dilutions of the hybrid compounds (100, 50, 25, and 12.5 μmol·L^–1) for 24 h at 37 °C in a humidified 5% CO2 atmosphere. Following incubation, parasite viability was assessed under an optical microscope by evaluating motility, and the number of live parasites was quantified using a Neubauer chamber. Untreated parasite cultures were maintained in parallel as negative controls. The mortality percentage was calculated by comparing the number of live parasites in treated wells to that of untreated controls. All experiments were conducted in triplicate with at least two technical replicates per concentration. EC50 values were determined by nonlinear regression using GraphPad Prism 8 and CompuSyn software (Biosoft, U.K.).

For another series, the system named is Trypanosoma cruzi. The note with it: cited from earlier work.
For the next series, the system named is T. cruzi epimastigotes. Set-up: method as in Brancaglion and coauthors. The following applies: ref Brancaglion and coauthors; read-out: in vitro IC50 against epimastigotes; cited from earlier work.
In series [2] the test system is T. cruzi intracellular amastigote forms. The note with it: in vitro; cited from earlier work.

The EC50 is the concentration giving half of the maximal effect. Broadly, the IC50 is the concentration at which inhibition is half-maximal.

On to `O=C(Cn1ccnc1[N+](=O)[O-])NCc1ccccc1` [Bz, benznidazole], for which the EC50 in series [1] turned out to be 21 µM. In the series on Trypanosoma cruzi (acute or early congenital infections), the parasitological cure rates is given as 80–90%. The “treatment discontinuation due to adverse effects” value in the series with Trypanosoma cruzi (dermatological, gastrointestinal and neurological symptoms) is recorded as 10–20 % of patients. Consider `CCCc1cc(OC)c2oc(=O)c(C(=O)c3ccc([N+](=O)[O-])cc3)cc2c1` [nitrobenzoyl derivative, 8-methoxy-3-(4-nitrobenzoyl)-6-propyl-2H-cromen-2-one], for which the IC50 with T. cruzi epimastigotes is 28 µM. Consider `CC[C@@H]([C@H](C)O)n1ncn(-c2ccc(N3CCN(c4ccc(OC[C@@H]5CO[C@@](Cn6cncn6)(c6ccc(F)cc6F)C5)cc4)CC3)cc2)c1=O` [posaconazole], for which, in series [2], the “inhibitory concentration against intracellular amastigotes (in words)” value was “subnanomolar concentrations”.

In the case of `C[C@@H](c1nc(-c2ccc(C#N)cc2)cs1)[C@](O)(Cn1cncn1)c1ccc(F)cc1F` [ravuconazole], the “inhibitory concentration against intracellular amastigotes (in words)” value in series [2] is given as “subnanomolar concentrations”.
